Reference: patent US9682991B2, “Tricyclic compounds for use as kinase inhibitors” (FUNDACIÓN CENTRO NACIONAL DE INVESTIGACIONES ONCOLOGICAS …, priority 2009, dated 2017)
Like-named read-outs stand apart in the source and are kept apart here.

Key:
[1] = system: Mantle cell lymphoma cells; assay: MTT in vitro cell proliferation / combination assay, mantle cell lymphoma (cell line not given); type: cell-based; conditions: Mantle cell lymphoma (cell line cell empty)
Procedure: (§1) Proliferation assays (MTT) were performed as described in: • “Chemical interrogation of FOXO3a nuclear translocation identifies potent and selective inhibitors of phosphoinositide 3-kinases”, W. Link, J. Oyarzabal, B. G. Serelde, M. I. Albarran, O. Rabal, A. Cebria, P. Alfonso, J. Fominaya, O. Renner, S. Peregrina, D. Soilan, P. A. Ceballos, A. I. Hernandez, M. Lorenzo, P. Pevarello, T. G. Granda, G. Kurz, A. Carnero, J. R. Bischoff, J. Biol. Chem. 284 (2009) 28392-28400. Combination Assay
(§2) A combination index score is calculated by the Chou and Talalay method (CalcuSyn software, Biosoft). The strength of synergy is scored using the ranking system Chou and Talalay: CI less than 0.8 indicates synergy, CI between 0.8 and 1.2 indicates additivity and CI greater than 1.2 indicates antagonism.
(§3) The EC50 values of representative combinations were also calculated. The individually measured EC50 values of the chemotherapeutic agent and the example compounds are compared to the EC50 value of the combination. The cell lines are characterised by tumor type.
(§4) Combination assays were performed as described in: • “Pim 1 kinase inhibitor ETP-45299 suppresses cellular proliferation and synergizes with PI3K inhibition”. Blanco-Aparicio, Carmen; Collazo, Ana Maria Garcia; Oyarzabal, Julen; Leal, Juan F.; Albaran, Maria Isabel; Lima, Francisco Ramos; Pequeno, Belen; Ajenjo, Nuria; Becerra, Mercedes; Alfonso, Patricia; Reymundo, Maria Isabel; Palacios, Irene; Mateos, Genoveva; Quinones, Helena; Corrionero, Ana; Carnero, Amancio; Pevarello, Paolo; Lopez, Ana Rodriguez; Fominaya, Jesus; Pastor, Joaquin; Bischoff, James R. Cancer Letters (Shannon, Ireland) 2011, 300(2), 145-153.

PIM-1 = PIM-1 (Homo sapiens (Human), UniProt P11309); assay: PIM-1 biochemical assay (ADP Hunter)
PIM-1, sequence (P11309 whole entry): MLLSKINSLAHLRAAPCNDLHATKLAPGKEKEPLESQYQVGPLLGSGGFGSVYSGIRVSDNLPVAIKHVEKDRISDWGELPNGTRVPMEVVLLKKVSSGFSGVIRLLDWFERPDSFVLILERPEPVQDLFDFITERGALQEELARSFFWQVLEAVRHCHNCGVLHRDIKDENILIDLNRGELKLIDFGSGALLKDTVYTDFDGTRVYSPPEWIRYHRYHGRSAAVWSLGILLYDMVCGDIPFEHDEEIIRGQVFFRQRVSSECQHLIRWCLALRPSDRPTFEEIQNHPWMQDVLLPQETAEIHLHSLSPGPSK

[2] = system: MV4:11 cells (leukemia, AML); assay: MTT in vitro cell proliferation / combination assay, MV4:11; type: cell-based; conditions: for EC50: Homo sapiens, MV4:11, example compound alone
Procedure: as §2
(§5) The EC50 values of representative combinations were also calculated. The individually measured EC50 values of the chemotherapeutic agent and the example compounds are compared to the EC50 value of the combination. The cell lines are characterised by tumor type. […]

SKMel19 cells (melanoma) = assay: MTT in vitro cell proliferation / combination assay, SKMel19; type: cell-based
Procedure: as §2, §5

PIM-3 = PIM-3 (Homo sapiens (Human), UniProt Q86V86); assay: PIM-3 biochemical assay (ADP Hunter); conditions: semi-quantitative; read-out: PIM3 IC50
PIM-2 = PIM-2 (Homo sapiens (Human), UniProt Q9P1W9); assay: PIM-2 biochemical assay (ADP Hunter); conditions: semi-quantitative; read-out: PIM2 IC50
PIM-2, sequence (Q9P1W9 whole entry): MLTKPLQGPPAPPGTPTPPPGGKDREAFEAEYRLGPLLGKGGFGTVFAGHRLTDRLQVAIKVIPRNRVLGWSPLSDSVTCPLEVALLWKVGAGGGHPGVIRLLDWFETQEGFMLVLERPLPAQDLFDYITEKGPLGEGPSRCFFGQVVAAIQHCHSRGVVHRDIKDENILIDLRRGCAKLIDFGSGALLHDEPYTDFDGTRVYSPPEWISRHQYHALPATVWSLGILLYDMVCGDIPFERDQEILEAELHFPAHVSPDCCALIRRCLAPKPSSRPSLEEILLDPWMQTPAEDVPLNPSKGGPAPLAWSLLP
Source text: The biochemical assay to measure PIM-2 activity relies on the ADP Hunter assay kit (DiscoveRx Corp., Cat. #90-0077), that determines the amount of ADP as direct product of the kinase enzyme activity.

[3] = system: Bad S112 phosphorylation in H1299 cells overexpressing Pim1 (H1299Pim1); assay: Bad S112 phosphorylation inhibition assay (In Cell ELISA); type: cell-based; conditions: Homo sapiens, NCI-H1299, semi-quantitative, read-out: EC50 BadP ELISA H1299 Pim1
Procedure: Efficacy of compounds of the invention on the inhibition of Bad phosphorylation was measured by an In Cell ELISA. EC50 values were established for the tested compounds.
Cells: H1299 cells overexpressing Pim1 (H1299Pim1)
Cells were seeded in 15000 cells per 200 μl per well into 96-well plates and incubated for 16 h at 37° C., 5% CO2. On day two, nine serial 1:2 compound dilutions were made in DMSO in a 96-well plate. The compounds were added to duplicate wells in 96-well cell plates using a FX BECKMAN robot (Beckman Coulter) and incubated at 37° C. with CO2 atmosphere. After 4 hours, relative levels of Bad S112 phosphorylation were measured in Cell ELISA using SuperSignal ELISA Femto substrate (Pierce) and read on VICTOR (Perkin Elmer). EC50 values were calculated using ActivityBase from IDBS.

[4] = system: HTC116 cells (colon carcinoma); assay: MTT in vitro cell proliferation / combination assay, HTC116; type: cell-based; conditions: HTC116, chemotherapeutic alone; read-out: Chemoth EC50
Procedure: as §2, §3

DU145 cells (prostate) = assay: MTT in vitro cell proliferation / combination assay, DU145; type: cell-based; conditions: Homo sapiens, DU-145; DU145, chemotherapeutic alone; read-out: Chemoth EC50
Procedure: as §1, §2, §3, §4

[5] = system: Jeko-1 cells (Mantle cell lymphoma); assay: MTT in vitro cell proliferation / combination assay, Jeko-1; type: cell-based; conditions: Homo sapiens; Jeko-1, chemotherapeutic alone; read-out: Chemoth EC50
Procedure: as §2, §3
Blanco-Aparicio, Carmen; Collazo, Ana Maria Garcia; Oyarzabal, Julen; Leal, Juan F.; Albaran, Maria Isabel; Lima, Francisco Ramos; Pequeno, Belen; Ajenjo, Nuria; Becerra, Mercedes; Alfonso, Patricia; Reymundo, Maria Isabel; Palacios, Irene; Mateos, Genoveva; Quinones, Helena; Corrionero, Ana; Carnero, Amancio; Pevarello, Paolo; Lopez, Ana Rodriguez; Fominaya, Jesus; Pastor, Joaquin; Bischoff, James R. Cancer Letters (Shannon, Ireland) 2011, 300(2), 145-153.

[6] = system: MiaPaca-2 cells (pancreas); assay: MTT in vitro cell proliferation / combination assay, MiaPaca-2; type: cell-based; conditions: Homo sapiens, MIA PaCa-2; MiaPaca-2, chemotherapeutic alone; read-out: Chemoth EC50
Procedure: as §1, §2, §3, §4

[7] = read-out: PIM1 IC50, semi-quantitative
[8] = MV4:11, combination with GDC-0941
[9] = SKMel19, combination with GDC-0879
[10] = SKMel19, combination with PD-0332991
[11] = MV4:11, combination with GDC-0879
[12] = MV4:11, combination with PD-0332991

Row | Structure (SMILES) | IC50 (PIM-1; [7]) | IC50 (PIM-3) | IC50 (PIM-2) | EC50 [3] | further results
1 | CN1CCC(CNc2nn3c(-c4cccc(OC(F)(F)F)c4)nnc3c3c2N(C)CCO3)CC1 [Example 16, (1-Methyl-piperidin-4-ylmethyl)-[6-methyl-3-(3-trifluoromethoxy-phenyl)-7,8-dihydro-6H-9-oxa-1,2,3a,4,6-pentaaza-cyclopenta[a]naphthalen-5-yl]-amine] | < 100 nM | – | – | – | Combination Index (CI) ([1]; combination with lapatinib): 0.289; Synergy ([1]; combination with lapatinib): +++ (0.1<CI<0.3); EC50 ([1]; example compound alone, read-out: Example EC50): 10000 nM; EC50 [2]: 5000 nM; Combination Index (CI) [2, 8]: 0.585; Synergy [2, 8]: ++ (0.3<C1<0.7)
2 | CN1CCOc2c1c(NCC1CCNCC1)nn1c(-c3cccc(OC(F)(F)F)c3)nnc21 [Example 56, [6-Methyl-3-(3-trifluoromethoxy-phenyl)-7,8-dihydro-6H-9-oxa-1,2,3a,4,6-pentaaza-cyclopenta[a]naphthalen-5-yl]-piperidin-4-ylmethyl-amine] | < 100 nM | – | – | – | EC50 (SKMel19 cells (melanoma); Homo sapiens, SK-MEL19, SKMel19, example compound alone): 6000 nM; Combination Index (CI) (SKMel19 cells (melanoma); [9]): 0.516; Synergy (SKMel19 cells (melanoma); [9]): ++ (0.3<C1<0.7); Combination Index (CI) (SKMel19 cells (melanoma); [10]): 0.568; Synergy (SKMel19 cells (melanoma); [10]): ++ (0.3<C1<0.7); EC50 [2]: 500 nM; Combination Index (CI) [2, 11]: 0.604; Synergy [2, 11]: ++ (0.3<C1<0.7); Combination Index (CI) [2, 8]: 0.024; Synergy [2, 8]: ++++ (CI<0.1); Combination Index (CI) [2, 12]: 0.309; Synergy [2, 12]: ++ (0.3<C1<0.7)
3 | CN1CCOc2c(N3CCC(CN)CC3)nn3c(-c4cccc(OC(F)(F)F)c4)nnc3c21 [Example 57, C-{1-[9-Methyl-3-(3-trifluoromethoxy-phenyl)-8,9-dihydro-7H-6-oxa-1,2,3a,4,9-pentaaza-cyclopenta[a]naphthalen-5-yl]-piperidin-4-yl}-methylamine] | < 100 nM | > 1000 nM | > 1000 nM | 1000 to 10000 nM | –
4 | CN1CCOc2c(NCC3CCNCC3)nn3c(-c4cccc(OC(F)(F)F)c4)nnc3c21 [Example 58, [9-Methyl-3-(3-trifluoromethoxy-phenyl)-8,9-dihydro-7H-6-oxa-1,2,3a,4,9-pentaaza-cyclopenta[a]naphthalen-5-yl]-piperidin-4-ylmethyl-amine] | < 100 nM | 100 to 1000 nM | > 1000 nM | 1000 to 10000 nM | –
5 | CNC1CCN(c2nn3c(-c4cccc(OC(F)(F)F)c4)nnc3c3c2N(C)CCO3)CC1 [Example 62, Methyl-{1-[6-methyl-3-(3-trifluoromethoxy-phenyl)-7,8-dihydro-6H-9-oxa-1,2,3a,4,6-pentaaza-cyclopenta[a]naphthalen-5-yl]-piperidin-4-yl}-amine] | < 100 nM | < 100 nM | 100 to 1000 nM | < 250 nM | –
6 | CN1CCOc2c(N3CCC4(CC3)CC(N)C4)nn3c(-c4cccc(OC(F)(F)F)c4)nnc3c21 [Example 66, 7-[9-Methyl-3-(3-trifluoromethoxy-phenyl)-8,9-dihydro-7H-6-oxa-1,2,3a,4,9-pentaaza-cyclopenta[a]naphthalen-5-yl]-7-aza-spiro[3.5]non-2-ylamine] | < 100 nM | 100 to 1000 nM | > 1000 nM | 1000 to 10000 nM | –
7 | COc1ccc(-c2nnc3c4c(c(NCc5ccc(F)cc5)nn23)N(C)CCO4)cc1 [Example 81, (4-Fluoro-benzyl)-[3-(4-methoxy-phenyl)-6-methyl-7,8-dihydro-6H-9-oxa-1,2,3a,4,6-pentaaza-cyclopenta[a]naphthalen-5-yl]-amine] | < 100 nM | 100 to 1000 nM | > 1000 nM | 1000 to 10000 nM | –
8 | CC(C)NCC1CCN(c2nn3c(-c4cccc(OC(F)(F)F)c4)nnc3c3c2OCCN3C)CC1 [Example 86, Isopropyl-{1-[9-methyl-3-(3-trifluoromethoxy-phenyl)-8,9-dihydro-7H-6-oxa-1,2,3a,4,9-pentaaza-cyclopenta[a]naphthalen-5-yl]-piperidin-4-ylmethyl}-amine] | – | 100 to 1000 nM | > 1000 nM | 1000 to 10000 nM | IC50 (PIM-1): 100 to 1000 nM
9 | FC(F)(F)Oc1cccc(-c2nnc3c4c(c(N5CCCCC5)nn23)OCCO4)c1 [Example 101, 5-Piperidin-1-yl-3-(3-trifluoromethoxy-phenyl)-7,8-dihydro-6,9-dioxa-1,2,3a,4-tetraaza-cyclopenta[a]naphthalene] | < 100 nM | 100 to 1000 nM | 100 to 1000 nM | 1000 to 10000 nM | –
10 | O=C(NOC[C@H](O)CO)c1ccc(F)c(F)c1Nc1ccc(I)cc1F [PD-0325901, (R)—N-(2,3-dihydroxypropoxy)-3,4-difluoro-2-(2-fluoro-4-iodophenylamino)benz-amide, reference compound] | – | – | – | – | EC50 [4]: 1250 nM
11 | CC(=O)O[C@@]12CO[C@@H]1C[C@H](O)[C@@]1(C)C(=O)[C@H](O)C3=C(C)[C@@H](OC(=O)[C@H](O)[C@@H](NC(=O)OC(C)(C)C)c4ccccc4)C[C@](O)([C@@H](OC(=O)c4ccccc4)[C@H]21)C3(C)C [Taxotere, (2R,3S)—N-carboxy-3-phenylisoserine, N-tert-butyl ester, 13-ester with 5,20-epoxy-1,2,4,7,10,13-hexahydroxytax-11-en-9-one 4-acetate 2-benzoate, trihydrate, reference compound] | – | – | – | – | EC50 (DU145 cells (prostate)): 25 nM
12 | CS(=O)(=O)CCNCc1ccc(-c2ccc3ncnc(Nc4ccc(OCc5cccc(F)c5)c(Cl)c4)c3c2)o1 [lapatinib, N-(3-chloro-4-(3-fluorobenzyloxy)phenyl)-6-(5-((2-(methylsulfonyl)ethylamino)-methyl)furan-2-yl)quinazolin-4-amine, reference compound] | – | – | – | – | EC50 ([1]; chemotherapeutic alone, read-out: Chemoth EC50): 5000 nM; EC50 [5]: 5000 nM; EC50 [4]: 10000 nM; EC50 [6]: 20000 nM
